Read-outs that look alike come from different tables or passages of the source.
How the values were obtained:
[1] = molecular target: T1, EGFR (L858R T790M C797S) (Homo sapiens, UniProt P00533, C797S/L858R/T790M); assay: Biochemical EGFR inhibition assay (Caliper mobility shift), EGFR LRTMCS mutant; settings: inhibitory activity against EGFR LRTMCS mutant; apparent IC50; read-out: Ext Enz LRTMCS
T1 construct: purchased SignalChem E10-122VG
Method in brief: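 Kinase reactions at 25 °C run to 10–20% peptide phosphorylation, stopped with 35 mM EDTA. Phosphorylated product and substrate separated electrophoretically by mobility shift. Apparent IC50 from percent activity versus log compound concentration.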

[2] = test system: phosphorylation of EGFR (Tyr1068) in NCI-H1975 cell line that harbors the EGFR L858R T790M mutations; assay: NCI-H1975 pEGFR AlphaLISA assay; assay type: cell-based; settings: 4-5 hours incubation, read-out: Ext pEGFR H1975
Method in brief: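 NCI-H1975 cells (EGFR L858R/T790M) seeded overnight, then treated with compound for 4-5 h at 37 °C/5% CO2. After lysis, p-EGFR (Tyr1068) quantified by AlphaLISA SureFire Ultra with acceptor then donor beads; IC50 fitted from percent inhibition versus log concentration.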

[3] = inhibition of phosphorylation of mutant EGFR in NCI-H1975 cells
[4] = Homo sapiens, NCI-H1975, inhibition of phosphorylation of mutant EGFR in NCI-H1975 cells

T1 sequence (P00533 25-1210 T790M/C797S/L858R): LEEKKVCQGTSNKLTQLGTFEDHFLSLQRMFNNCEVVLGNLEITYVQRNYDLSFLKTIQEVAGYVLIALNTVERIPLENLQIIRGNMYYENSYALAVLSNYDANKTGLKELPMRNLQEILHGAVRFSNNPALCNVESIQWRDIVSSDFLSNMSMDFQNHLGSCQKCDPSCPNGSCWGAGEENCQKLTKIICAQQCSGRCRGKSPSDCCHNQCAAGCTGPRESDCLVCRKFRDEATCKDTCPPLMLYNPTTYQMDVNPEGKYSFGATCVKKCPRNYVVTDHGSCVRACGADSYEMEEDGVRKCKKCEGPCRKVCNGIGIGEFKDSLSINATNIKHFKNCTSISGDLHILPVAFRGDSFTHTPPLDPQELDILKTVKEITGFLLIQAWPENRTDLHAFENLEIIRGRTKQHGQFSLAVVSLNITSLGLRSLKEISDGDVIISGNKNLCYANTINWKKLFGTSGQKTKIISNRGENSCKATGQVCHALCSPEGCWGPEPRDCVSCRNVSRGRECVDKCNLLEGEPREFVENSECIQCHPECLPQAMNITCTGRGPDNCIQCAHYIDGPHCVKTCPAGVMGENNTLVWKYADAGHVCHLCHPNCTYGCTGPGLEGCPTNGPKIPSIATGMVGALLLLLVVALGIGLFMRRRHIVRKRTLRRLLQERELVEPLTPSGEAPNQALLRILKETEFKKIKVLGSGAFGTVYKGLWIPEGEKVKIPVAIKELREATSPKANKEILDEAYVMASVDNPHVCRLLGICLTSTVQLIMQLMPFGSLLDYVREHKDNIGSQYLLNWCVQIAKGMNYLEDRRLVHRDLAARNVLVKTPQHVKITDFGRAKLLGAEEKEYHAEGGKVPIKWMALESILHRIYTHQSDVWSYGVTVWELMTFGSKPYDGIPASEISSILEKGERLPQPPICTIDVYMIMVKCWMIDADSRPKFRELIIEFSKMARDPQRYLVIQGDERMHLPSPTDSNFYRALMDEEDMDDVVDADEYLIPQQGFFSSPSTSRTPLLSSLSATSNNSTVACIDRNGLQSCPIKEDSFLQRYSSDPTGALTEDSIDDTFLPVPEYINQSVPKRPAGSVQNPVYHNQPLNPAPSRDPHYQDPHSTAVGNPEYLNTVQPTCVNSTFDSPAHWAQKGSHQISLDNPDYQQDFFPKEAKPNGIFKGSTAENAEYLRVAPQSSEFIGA

`CO[C@H]1CCN(c2nccc(Nc3cc4c(C(C)C)ccc(N5CC(CS(C)(=O)=O)C5)c4cn3)n2)C[C@@H]1O` (single isomer, unassigned) [Compound 53, (3S,4S)-1-[4-({8-[3-(methanesulfonylmethyl)azetidin-1-yl]-5-(propan-2-yl)isoquinolin-3-yl}amino)pyrimidin-2-yl]-4-methoxypiperidin-3-ol or (3R,4R)-1-[4-({8-[3-(methanesulfonylmethyl)azetidin-1-yl]-5-(propan-2-yl)isoquinolin-3-yl}amino)pyrimidin-2-yl]-4-methoxypiperidin-3-ol] was tested, and the IC50 [1] was no more than 15 nM and the IC50 [2, 3] was no more than 10 nM.
`CO[C@H]1CCN(c2nccc(Nc3cc4c(C(C)C)ccc(N5CC(CS(C)(=O)=O)C5)c4cn3)n2)C[C@@H]1O` (single isomer, unassigned) [Compound 54, (3R,4R)-1-[4-({8-[3-(methanesulfonylmethyl)azetidin-1-yl]-5-(propan-2-yl)isoquinolin-3-yl}amino)pyrimidin-2-yl]-4-methoxypiperidin-3-ol or (3S,4S)-1-[4-({8-[3-(methanesulfonylmethyl)azetidin-1-yl]-5-(propan-2-yl)isoquinolin-3-yl}amino)pyrimidin-2-yl]-4-methoxypiperidin-3-ol] gave an IC50 [1] of no more than 15 nM and an IC50 [2, 3] of 30.1 to 50 nM.
`CC(C)c1ccc(N2CC(CS(C)(=O)=O)C2)c2cnc(Nc3ccnc(N4CC[C@@](C)(O)[C@@H](F)C4)n3)cc12` (single isomer, unassigned) [Compound 56] showed an IC50 [1] of no more than 15 nM and an IC50 [2, 4] of 10.1 to 20 nM.
Compound `CC(C)c1ccc(N2CC(CS(C)(=O)=O)C2)c2cnc(Nc3ccnc(N4CC[C@](C)(O)[C@H](F)C4)n3)cc12` (single isomer, unassigned) [Compound 57] has an IC50 [1] of no more than 15 nM and an IC50 [2, 4] of 10.1 to 20 nM.
Compound `CC(C)c1ccc(N2CC(CS(C)(=O)=O)C2)c2cnc(Nc3ccnc(N4CC[C@](F)([C@@H](C)O)C4)n3)cc12` (single isomer, unassigned) [Compound 58, (1R)-1-[(3R)-3-fluoro-1-[4-({8-[3-(methanesulfonylmethyl)azetidin-1-yl]-5-(propan-2-yl)isoquinolin-3-yl}amino)pyrimidin-2-yl]pyrrolidin-3-yl]ethan-1-ol or (1S)-1-[(3S)-3-fluoro-1-[4-({8-[3-(methanesulfonylmethyl)azetidin-1-yl]-5-(propan-2-yl)isoquinolin-3-yl}amino)pyrimidin-2-yl]pyrrolidin-3-yl]ethan-1-ol] has an IC50 [1] of 15.1 to 20 nM and an IC50 [2, 4] of 20.1 to 30 nM.
With `CC(C)c1ccc(N2CC(CS(C)(=O)=O)C2)c2cnc(Nc3ccnc(N4CC[C@@](F)([C@@H](C)O)C4)n3)cc12` (single isomer, unassigned) [Compound 59, (1R)-1-[(3S)-3-fluoro-1-[4-({8-[3-(methanesulfonylmethyl)azetidin-1-yl]-5-(propan-2-yl)isoquinolin-3-yl}amino)pyrimidin-2-yl]pyrrolidin-3-yl]ethan-1-ol or (1S)-1-[(3R)-3-fluoro-1-[4-({8-[3-(methanesulfonylmethyl)azetidin-1-yl]-5-(propan-2-yl)isoquinolin-3-yl}amino)pyrimidin-2-yl]pyrrolidin-3-yl]ethan-1-ol] the IC50 [1] was no more than 15 nM and the IC50 [2, 4] was 10.1 to 20 nM.
Work on `CCS(=O)(=O)CC1CN(c2ccc(C)c3cc(Nc4ccnc(N5C[C@@H](F)[C@@H](O)C(C)(C)C5)n4)ncc23)C1` (single isomer, unassigned) [Compound 60, (4S,5R)-1-{4-[(8-{3-[(ethanesulfonyl)methyl]azetidin-1-yl}-5-methylisoquinolin-3-yl)amino]pyrimidin-2-yl}-5-fluoro-3,3-dimethylpiperidin-4-ol or (4R,5S)-1-{4-[(8-{3-[(ethanesulfonyl)methyl]azetidin-1-yl}-5-methylisoquinolin-3-yl)amino]pyrimidin-2-yl}-5-fluoro-3,3-dimethylpiperidin-4-ol] yielded an IC50 [1] of no more than 15 nM and an IC50 [2, 4] of 20.1 to 30 nM.
With `CCc1ccc(N2C[C@H](CS(C)(=O)=O)[C@H]2C)c2cnc(Nc3ccnc(N4CC[C@@H](O)[C@@](C)(F)C4)n3)cc12` (single isomer, unassigned) [Compound 65] the IC50 [1] was no more than 15 nM and the IC50 [2, 4] was no more than 10 nM.
In the case of `CCS(=O)(=O)C[C@H]1CN(c2cccc3cc(Nc4ccnc(N5C[C@@H](F)[C@@H](O)C(C)(C)C5)n4)ncc23)[C@@H]1C` (single isomer, unassigned) [Compound 66, (4S,5R)-1-[4-({8-[(2R,3S)-3-[(ethanesulfonyl)methyl]-2-methylazetidin-1-yl]isoquinolin-3-yl}amino)pyrimidin-2-yl]-5-fluoro-3,3-dimethylpiperidin-4-ol or (4R,5S)-1-[4-({8-[(2R,3S)-3-[(ethanesulfonyl)methyl]-2-methylazetidin-1-yl]isoquinolin-3-yl}amino)pyrimidin-2-yl]-5-fluoro-3,3-dimethylpiperidin-4-ol], the IC50 [1] is reported as no more than 15 nM and the IC50 [2, 4] is reported as no more than 10 nM.
For `CC(C)c1ncc(N2CC(CS(C)(=O)=O)C2)c2cnc(Nc3ccnc(N4CC[C@@H](O)[C@@](C)(F)C4)n3)cc12` (single isomer, unassigned) [Compound 70], the IC50 [1] was no more than 15 nM and the IC50 [2, 4] was no more than 10 nM.
With `CCS(=O)(=O)CC1CN(c2ccc(OC)c3cc(Nc4ccnc(N5CC[C@@H](O)[C@@](C)(F)C5)n4)ncc23)C1` (single isomer, unassigned) [Compound 77] the IC50 [1] was 15.1 to 20 nM and the IC50 [2, 4] was 30.1 to 50 nM.
Work on `CCOc1ccc(N2CC(CS(C)(=O)=O)C2)c2cnc(Nc3ccnc(N4CC[C@@H](O)[C@@](C)(F)C4)n3)cc12` (single isomer, unassigned) [Compound 78] yielded an IC50 [1] of no more than 15 nM and an IC50 [2, 4] of 20.1 to 30 nM.
With `COc1ccc(N2CC(CS(C)(=O)=O)C2)c2cnc(Nc3ccnc(N4C[C@@H](F)[C@@H](O)C(C)(C)C4)n3)cc12` (single isomer, unassigned) [Compound 79, (4S,5R)-5-fluoro-1-[4-({8-[3-(methanesulfonylmethyl)azetidin-1-yl]-5-methoxyisoquinolin-3-yl}amino)pyrimidin-2-yl]-3,3-dimethylpiperidin-4-ol or (4R,5S)-5-fluoro-1-[4-({8-[3-(methanesulfonylmethyl)azetidin-1-yl]-5-methoxyisoquinolin-3-yl}amino)pyrimidin-2-yl]-3,3-dimethylpiperidin-4-ol] the IC50 [1] was no more than 15 nM and the IC50 [2, 4] was 10.1 to 20 nM.
With `CCOc1cnc(N2CC(CS(C)(=O)=O)C2)c2cnc(Nc3ccnc(N4CC[C@@H](O)[C@@](C)(F)C4)n3)cc12` (single isomer, unassigned) [Compound 80] the IC50 [1] was no more than 15 nM and the IC50 [2, 4] was 30.1 to 50 nM.
For `[2H]C([2H])([2H])O[C@H]1CCN(c2nccc(Nc3cc4c(C(C)C)ccc(N5CC(CS(C)(=O)=O)C5)c4cn3)n2)C[C@H]1F` (single isomer, unassigned) [Compound 81], the IC50 [1] was no more than 15 nM and the IC50 [2, 4] was no more than 10 nM.
In the case of `[2H]C([2H])([2H])O[C@@H]1CCN(c2nccc(Nc3cc4c(C(C)C)ccc(N5CC(CS(C)(=O)=O)C5)c4cn3)n2)C[C@@H]1F` (single isomer, unassigned) [Compound 82], the IC50 [1] is reported as no more than 15 nM and the IC50 [2, 4] is reported as no more than 10 nM.
Compound `C[C@@H]1[C@@H](CS(C)(=O)=O)CN1c1ccc(F)c2cc(Nc3ccnc(N4C[C@H](F)[C@H](O)C(C)(C)C4)n3)ncc12` (single isomer, unassigned) [Compound 83, (4S,5R)-5-fluoro-1-[4-({5-fluoro-8-[(2R,3S)-3-(methanesulfonylmethyl)-2-methylazetidin-1-yl]isoquinolin-3-yl}amino)pyrimidin-2-yl]-3,3-dimethylpiperidin-4-ol or (4R,5S)-5-fluoro-1-[4-({5-fluoro-8-[(2R,3S)-3-(methanesulfonylmethyl)-2-methylazetidin-1-yl]isoquinolin-3-yl}amino)pyrimidin-2-yl]-3,3-dimethylpiperidin-4-ol] has an IC50 [1] of no more than 15 nM and an IC50 [2, 4] of no more than 10 nM.
`CO[C@@H]1CCN(c2nccc(Nc3cc4c(F)ccc(N5C[C@H](CS(C)(=O)=O)[C@H]5C)c4cn3)n2)C[C@]1(C)F` (single isomer, unassigned) [Compound 84] was tested, and the IC50 [1] was no more than 15 nM and the IC50 [2, 4] was 10.1 to 20 nM.
`CC1(C)CN(c2nccc(Nc3cc4c(F)cc(F)c(N5CC(CS(C)(=O)=O)C5)c4cn3)n2)C[C@@H](F)[C@H]1O` (single isomer, unassigned) [Compound 86, (4S,5R)-1-[4-[[5,7-difluoro-8-[3-(methylsulfonylmethyl)azetidin-1-yl]-3-isoquinolyl]amino]pyrimidin-2-yl]-5-fluoro-3,3-dimethyl-piperidin-4-ol or (4R,5S)-1-[4-[[5,7-difluoro-8-[3-(methylsulfonylmethyl)azetidin-1-yl]-3-isoquinolyl]amino]pyrimidin-2-yl]-5-fluoro-3,3-dimethyl-piperidin-4-ol] showed an IC50 [1] of 20.1 to 30 nM and an IC50 [2, 4] of 30.1 to 50 nM.
Work on `C[C@H](CO)c1ccc(N2CC(CS(C)(=O)=O)C2)c2cnc(Nc3ccnc(N4CCC5(CCO5)CC4)n3)cc12` (single isomer, unassigned) [Compound 87, (2S)-2-{8-[3-(methanesulfonylmethyl)azetidin-1-yl]-3-[(2-{1-oxa-7-azaspiro[3,5]nonan-7-yl}pyrimidin-4-yl)amino]isoquinolin-5-yl}propan-1-ol or (2R)-2-{8-[3-(methanesulfonylmethyl)azetidin-1-yl]-3-[(2-{1-oxa-7-azaspiro[3.5]nonan-7-yl}pyrimidin-4-yl)amino]isoquinolin-5-yl}propan-1-ol] yielded an IC50 [1] of no more than 15 nM and an IC50 [2, 4] of 20.1 to 30 nM.
Compound `CO[C@H]1CCN(c2nccc(Nc3cc4c(C(C)C)ccc(N5C[C@H](CS(C)(=O)=O)[C@H]5C)c4cn3)n2)C[C@@H]1N` (single isomer, unassigned) [Compound 89] has an IC50 [1] of no more than 15 nM and an IC50 [2, 4] of no more than 10 nM.

— US12172983B2, “EGFR inhibitors” (Blueprint Medicines Corporation, priority 2019, dated 2024)
